Test results: PubChem BioAssay AID2103 (Johns Hopkins Ion Channel Center, 2009)
The source made the active and inactive calls.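 Rule for the calls: active = hERG current rise at or above blocker-only control mean plus 3 SD, readout 0 or more; inactive = the rest.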

target: Voltage-gated inwardly rectifying potassium channel KCNH2 (Homo sapiens) (UniProt Q12809); assay: hERG tail current rescue from dofetilide, cell-based, Ionworks automated patch clamp, CHO-hERG, secondary (AID 2103); conditions: dofetilide IC70, at 10 µM, active compounds read high
Sequence (Q12809 whole entry, looked up): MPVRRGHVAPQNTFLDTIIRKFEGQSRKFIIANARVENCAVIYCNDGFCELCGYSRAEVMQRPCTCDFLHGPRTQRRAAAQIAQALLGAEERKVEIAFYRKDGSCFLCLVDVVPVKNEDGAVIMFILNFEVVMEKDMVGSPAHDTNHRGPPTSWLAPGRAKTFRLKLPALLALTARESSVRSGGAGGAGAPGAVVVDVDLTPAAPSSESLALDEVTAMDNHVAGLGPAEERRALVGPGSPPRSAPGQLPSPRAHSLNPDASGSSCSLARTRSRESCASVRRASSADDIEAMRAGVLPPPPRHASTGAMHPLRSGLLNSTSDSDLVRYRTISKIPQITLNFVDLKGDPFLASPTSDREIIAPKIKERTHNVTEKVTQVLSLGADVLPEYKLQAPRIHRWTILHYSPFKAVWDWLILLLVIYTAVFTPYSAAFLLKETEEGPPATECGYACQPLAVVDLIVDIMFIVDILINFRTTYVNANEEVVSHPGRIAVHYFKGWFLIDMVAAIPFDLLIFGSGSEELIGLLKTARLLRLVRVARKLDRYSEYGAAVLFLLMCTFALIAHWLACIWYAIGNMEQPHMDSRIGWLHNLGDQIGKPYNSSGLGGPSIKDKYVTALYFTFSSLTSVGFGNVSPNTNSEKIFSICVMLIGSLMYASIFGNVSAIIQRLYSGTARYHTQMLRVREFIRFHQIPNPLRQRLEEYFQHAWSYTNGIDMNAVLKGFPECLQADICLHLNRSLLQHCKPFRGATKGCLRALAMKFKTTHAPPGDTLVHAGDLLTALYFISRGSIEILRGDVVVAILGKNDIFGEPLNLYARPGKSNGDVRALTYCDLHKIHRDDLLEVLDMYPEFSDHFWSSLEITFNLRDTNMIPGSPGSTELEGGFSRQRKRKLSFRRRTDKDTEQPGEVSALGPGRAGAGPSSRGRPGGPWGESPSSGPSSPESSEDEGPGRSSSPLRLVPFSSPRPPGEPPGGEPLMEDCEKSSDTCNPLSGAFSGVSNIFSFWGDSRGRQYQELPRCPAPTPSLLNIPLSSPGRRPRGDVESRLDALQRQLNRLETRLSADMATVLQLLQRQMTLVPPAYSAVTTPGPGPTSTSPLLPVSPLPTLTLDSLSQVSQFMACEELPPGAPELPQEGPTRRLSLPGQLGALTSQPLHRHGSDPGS

Compound	current change vs dofetilide control, less the hit threshold
CC(=O)c1c(C)c2c(n1CCN(C)C)CCCC2	-56.2% (inactive)
CCOC(=O)c1c(C)[nH]c(C)c1S(=O)(=O)N1CCCCC1	-31.9% (inactive)
Cc1ccc(C)c2sc(NC(=O)c3nc4ccccc4s3)nc12	-46.9% (inactive)
NC(=O)C1CCN(C(=O)c2cc3c(s2)CCCC3)CC1	-52.8% (inactive)
COc1ccc(C(=O)Nc2ccccc2C(=O)O)cc1Cl	-54.3% (inactive)
CN(C(=O)c1ccc(Cl)c(S(=O)(=O)N2CCOCC2)c1)c1ccccc1C(=O)O	-64.9% (inactive)
CCOC(=O)N1CCN(C(=O)c2ccc(CN(c3ccc(C)c(C)c3)S(C)(=O)=O)cc2)CC1	-30.1% (inactive)
CC(C)Oc1c(Cl)cc(CNC(C)(C)CO)cc1Cl	-52.1% (inactive)
CC1CN(S(=O)(=O)c2ccc(-c3nc4ccccc4s3)cc2)CC(C)O1 (centres undefined)	-45% (inactive)
Cc1ccc(Cn2nnc3c(=O)n(CC(=O)N4CCCc5ccccc54)cnc32)cc1	-41.2% (inactive)
O=C(O)c1ccc(Cl)cc1Nc1nc2cc(Cl)ccc2o1	-48.7% (inactive)
CCOC(=O)N1CCN(C(=O)c2ccc(Cl)c(S(=O)(=O)Nc3ccccc3)c2)CC1	-58.5% (inactive)
N#Cc1c(NC(=O)c2cc(-n3cnnc3)ccc2Cl)sc2c1CCCC2	-43.1% (inactive)
COC(=O)c1ccc(CSc2ncnc3sc(C)c(C)c23)o1	-48.9% (inactive)
COC(=O)c1c(NS(=O)(=O)c2ccc3ccccc3c2)sc2c1CCCC2	-46.2% (inactive)
Clc1cccc(OCCCN2CCCC2)c1Cl	-77.4% (inactive)
CCc1ccc(C(C)NC(=O)C2CCCC2)cc1 (centres undefined)	-41.5% (inactive)
O=C(c1csc(Nc2ccccc2Cl)n1)N1CCCC1	-45.9% (inactive)
O=C1C2CC=CCC2C(=O)N1c1ccc(Cc2ccncc2)cc1 (centres undefined)	-31.9% (inactive)
CN(Cc1ccccc1)C(=O)CCc1ccccc1	-53.5% (inactive)
Fc1ccc2nc(Nc3nc4c(F)cc(F)cc4s3)sc2c1	-49% (inactive)
Cc1ccc(C(=O)Nc2nc3ccccc3c(=O)s2)cc1	-52.6% (inactive)
Cc1ccc(C(C#N)c2ccc3c(C(F)(F)F)cc(C(F)(F)F)nc3n2)cc1 (centres undefined)	-59.8% (inactive)
CCCN(C(=O)c1ccco1)c1nnc(-c2ccncc2)s1	-29.1% (inactive)
CCc1ccc2nc(NC(=O)c3cc(C)on3)sc2c1	-43.6% (inactive)
Cc1nc2ccccc2n1-c1ccccc1	-51.1% (inactive)
CCOC(=O)Cc1nc2ccccc2o1	-49.3% (inactive)
Cc1nonc1CN(C)C(=O)c1ccc(OC2CCN(Cc3ccccn3)CC2)cc1	-69.9% (inactive)
CCOC(=O)C1CCN(S(=O)(=O)c2cccc3nonc23)CC1	-37.7% (inactive)
